In general, IC50 refers to the point on the concentration scale where inhibition reaches its midpoint. As a reminder, the melting point is the temperature of the solid-liquid transition.

This is an account of results in patent US6506758B2, “Indole derivatives useful A.O. for the treatment of osteoporosis” (SmithKline Beecham Laboratoires Pharmceutiques, priority 1997, dated 2003).

Series [1] addresses bafilomycin-sensitive ATPase of chicken osteoclast. In words: Inhibition of bafilomycin-sensitive ATPase activity in purified chicken osteoclast membrane vesicles (Pi release). The settings on record: membrane source not given, chicken osteoclast assumed. The class given is biochemical. As for the experimental part:
Preparation of Crude Bone Microsomes from Calcium-starved Egg-laying Hens
Vesicles were prepared from medullar bone obtained from tibiae and femurs or egg-laying hens which were calcium-starved for at least 15 days. Briefly, bone fragments were scraped with a 24 scalpel blade, suspended in 40 ml of isolation medium (0.2 M sucrose, 50 mM KCl, 10 mM Hepes, 1 mM EGTA, 2 mM dithiotheitrol, pH 7.4) and filtered through a 100 μm pore size nylon mesh. The whole procedure was performed at 4° C. After homogenisation in a potter (20 strokes) in 40 ml of isolation medium an initial centrifugation (6,500×gmax×20 min) was performed to remove mitochondria and lysosomes. The supernatant was centrifuged at 100,000×gmax for 1 hr and the pellet was collected in 1 ml of isolation medium, divided into 200 μl aliquots, immediately frozen in liquid nitrogen and stored at −80° C. The protein content was determined using a Biorad colourimetric kit according to Bradford [M. Bradford, Anal. Biochem., 72, 248 (1976)]. For the proton transport assay, 5-10 μl of membranes were used.
Purification of osteoclast membranes. 1 ml of crude microsomal vesicles prepared above were applied (about 0.2 ml per tube ) on the top of a sucrose step-gradient consisting of 3.5 ml of 15%, 30% and 45% (w/w) sucrose in isolation medium and centrifuged at 280,000 gmax for 2 h (SW 41 Ti rotor). After centrifugation the 30-45% sucrose interfaces were collected, diluted approx. 20-fold in isolation medium and pelletted at 100,000 gmax for 1 hour (SW 28 rotor). […]
Inhibition of bafilomycin-sensitive ATPase activity was assessed in purified membrane vesicles by measuring the release of inorganic phosphate (Pi) during 30 min of incubation at 37° C. in a 96-well plate either in the presence or in the absence of bafilomycin A1. […] Absorbance at 650 nm was measured after 2 min using a microplate reader. Results are expressed as nmol (Pi)×mg protein^−1×min^−1 and, for each experiment, represent the mean±sem of triplicates.

The target of series [2] is bafilomycin-sensitive ATPase in human kidney membranes. As to the kind of experiment: Inhibition of bafilomycin-sensitive ATPase in human kidney membranes. The class given is biochemical. To be noted: read-out: IC50 h kidney. How it is done:
Human kidney membranes were obtained from the cortex of a human kidney, frozen immediately after surgery, according to the method reported in the literature for bovine kidney (S. Gluck, J Biol. Chem., 265, 21957 (1990)).
Inhibition of bafilomycin-sensitive ATPase activity was assessed in purified membrane vesicles by measuring the release of inorganic phosphate (Pi) during 30 min of incubation at 37° C. in a 96-well plate either in the presence or in the absence of bafilomycin A1. The reaction medium contained 1 mM ATP, 10 mM HEPES-Tris pH 8, 50 mM KCl, 5 uM valinomycin, 5 uM nigericin, 1 mM CDTA-Tris,100 uM ammonium molybdate, 0.2 M sucrose and membranes (20 ug protein/ml). The reaction was initiated by MgSO4 (8-arm pipette) and stopped, after 30 min, by addition of 4 volumes of the malachite green reagent (96-arm pipette) prepared according to Chan [Anal. Biochem. 157, 375 (1986)]. Absorbance at 650 nm was measured after 2 min using a microplate reader. Results are expressed as nmol (Pi)×mg protein^−1×min^−1 and, for each experiment, represent the mean±sem of triplicates.

Molecules are shown by their SMILES.

As to `CN1C(C)(C)CC(NC(=O)c2ccc(-c3cc4cc(Cl)c(Cl)cc4[nH]3)cc2)CC1(C)C` [Example 1, 4-(5,6-Dichloro-1H-indol-2-yl)-N-(1,2,2,6,6-pentamethypiperidin-4-yl)benzamide], the 50% inhibitory concentration (IC50) in series [1] was 0.35 µM; in series [2], 1250 nM. As for `COc1cc(C(=O)NC2CC(C)(C)N(C)C(C)(C)C2)ccc1-c1cc2cc(Cl)c(Cl)cc2[nH]1` [Example 2, 4-(5,6-Dichloro-1H-indol-2-yl)-3-methoxy-N-(1,2,2,6,6-pentamethylpiperidin-4yl)-benzamide], the results for the IC50 in series [1] and in series [2] were 0.096 µM and 200 nM, respectively.

In turn, `COc1cc(-c2cc3cc(Cl)c(Cl)cc3[nH]2)ccc1C(=O)NC1CC(C)(C)N(C)C(C)(C)C1` [Example 3, 4-(5,6-Dichloro-1H-indol-2-yl)-2-methoxy-N-(1,2,2,6,6-pentamethylpiperidin-4-yl)-benzamide] had an IC50 in series [1] of 1.3 µM. In the case of `CN(C)CCCNC(=O)c1cccc(-c2cc3cc(Cl)c(Cl)cc3[nH]2)c1` [Example 5, 3-(5,6-Dichloro-1H-indol-2-yl)-N-(3-dimethylaminopropyl)benzamide], the melting point turned out to be 204 °C.
